Results reported in patent US11000033B2, “Ketone or oxime compound, and herbicide” (NISSAN CHEMICAL CORPORATION, priority 2014, dated 2021).

Columns and labels:
Format in all cases: in vivo
[1] = tested on: soybean; experiment: Test Example 5: effect on crop by foliage application, plastic box (symbol d); conditions: 320 g/ha, 3 weeks after application
Procedure, shortened: (§1)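 Greenhouse culture at 25° C. to 30° C. followed spot-like sowing into sterilized diluvial soil, with seed covered by roughly 1.5 cm of soil.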

[2] = tested on: Abutilon theophrasti; experiment: Test Example 4: herbicidal effect by soil treatment (symbol M)
Procedure, shortened: (§2)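 Seeds were sown in sterilized diluvial soil, covered with about 1.5 cm of soil, and the soil surface was sprayed with a water-diluted emulsion of the compound at a predetermined rate. Plants grew in a greenhouse at 25° C. to 30° C.; effects were scored visually 3 weeks after application.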

[3] = tested on: Echinochloa crus-galli var. crus-galli; experiment: Test Example 3: herbicidal effect by foliage application, Wagner pot (symbol H); conditions: application herbicide amount 320 g/ha; for H (Echinochloa crus-galli var. crus-galli) herbicidal effect grade: Table 24
Procedure, shortened: (§3)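 Scoring took place 3 weeks after application, using fixed criteria. Plants had been raised from seed for 14 days at 25 to 30 °C in submerged alluvial soil before a diluted emulsion of the test compound was sprayed uniformly on the leaves.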

[4] = tested on: rapeseed; experiment: Test Example 5: effect on crop by foliage application, plastic box (symbol g); conditions: 320 g/ha, 3 weeks after application
Procedure, shortened: as §1

[5] = tested on: Monochoria vaginalis; experiment: Test Example 1: herbicidal activity, application before weed generation in submerged conditions (symbol C); conditions: application herbicide amount 320 g/ha
Procedure, shortened: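 0–5 visual score, 3 wk post-application. Submerged pots, alluvial soil, water 4 cm; seeds sown mixed, rice at 2.5 leaves transplanted. Emulsion diluted to predetermined dose, applied to water surface at sowing. 25–30 °C greenhouse.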

[6] = tested on: Lolium multiflorum Lam.; experiment: Test Example 5: herbicidal effect by foliage application, plastic box (symbol K); conditions: 320 g/ha, 3 weeks after application
Procedure, shortened: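 Sowing in sterilized diluvial soil, 14 days' greenhouse growth at 25° C. to 30° C., then uniform small-sprayer foliar application of aqueous emulsion dilution; plants scored three weeks afterwards.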

[7] = tested on: Leptochloa chinensis; experiment: Test Example 3: herbicidal effect by foliage application, Wagner pot (symbol D); conditions: application herbicide amount 320 g/ha; for D (Leptochloa chinensis) herbicidal effect grade: Table 24
Procedure, shortened: as §3

[8] = tested on: Avena fatua; experiment: Test Example 4: herbicidal effect by soil treatment (symbol I)
Procedure, shortened: as §2

[9] = tested on: Chenopodium album; experiment: Test Example 4: herbicidal effect by soil treatment (symbol O)
From the text: Herbicidal Effect Test by Soil Treatment
Sterilized diluvial soil was placed in a plastic box having a length of 21 cm, a width of 13 cm, and a depth of 7 cm. Each of the seeds of Digitaria ciliaris, Setaria viridis, Echinochloa crus-galli var. crus-galli, Avena fatua, Alopecurus myosuroides, Lolium multiflorum Lam., Apera spica-venti, Abutilon theophrasti, Amaranthus retroflexus, Chenopodium album, Stellaria media, Galium spurium, Veronica persica, corn, soybean, rice, wheat, beet, and rapeseed was sowed in a spot-like manner and was covered with the soil of a thickness of about 1.5 cm. Subsequently, the emulsion agent of the compound present invention prepared in accordance with Formulation Example 2 was diluted with water so as to be a predetermined herbicide amount and the diluted emulsion agent was uniformly applied to the surface of the soil with a small-size spray. The plastic box was placed in a greenhouse of 25° C. to 30° C. to grow plant. 3 weeks later from the herbicide application, the effect to each plant was investigated in accordance with the criteria of Test Example 1.

[10] = tested on: corn; experiment: Test Example 5: effect on crop by foliage application, plastic box (symbol c); conditions: 320 g/ha, 3 weeks after application
Procedure, shortened: as §1

[11] = tested on: Monochoria vaginalis; experiment: Test Example 2: herbicidal activity, application during weed generation in submerged conditions (symbol C); conditions: Table 23; application herbicide amount 320 g/ha; grade 0-5 by criteria of Test Example 1
Procedure, shortened: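 Read-out: herbicidal effect on each species rated on a visual scale 3 weeks after treatment. Plants were raised together from seed in flooded alluvial soil (4 cm water) at 25° C. to 30° C. and treated at one to two leaves by water-surface application of diluted emulsion.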

[12] = application herbicide amount 320 g/ha

Structure (SMILES)	d: soybean, effect on crop grade [1]	H (Echinochloa crus-galli var. crus-galli) herbicidal effect grade [3]	g: rapeseed, effect on crop grade [4]	C (Monochoria vaginalis) herbicidal effect grade [5]	K: Lolium multiflorum Lam., herbicidal effect grade [6]	D (Leptochloa chinensis) herbicidal effect grade [7]	c: corn, effect on crop grade [10]	d: soybean, effect on crop (criteria 0-5) [1]	M: Abutilon theophrasti, herbicidal effect grade ([2]; 320 g/ha)	herbicidal effect on H (Echinochloa crus-galli var. crus-galli), grade 0-5 [3]	g: rapeseed, effect on crop (criteria 0-5) [4]	Herbicidal effect grade, C: Monochoria vaginalis [5]	K: Lolium multiflorum Lam., herbicidal effect (criteria 0-5) [6]	herbicidal effect on D (Leptochloa chinensis), grade 0-5 [7]	I: Avena fatua, herbicidal effect grade ([8]; 320 g/ha)	O: Chenopodium album, herbicidal effect grade ([9]; 320 g/ha)	c: corn, effect on crop (criteria 0-5) [10]	further results
CC(CC1CC(OC(=O)N2CCOCC2)=C(c2c(C)cc(-c3ccc(Cl)cc3)cc2C)C1=O)=NOCC(F)(F)F (mixture of isomers) [9-025]	0 (Herbicidal ratio of 5% or lower (almost no effect))	0 (Herbicidal ratio of 5% or lower (almost no effect))	0 (Herbicidal ratio of 5% or lower (almost no effect))	1 (Herbicidal ratio of 5% or higher and lower than 20%)	0 (Herbicidal ratio of 5% or lower (almost no effect))	5 (Herbicidal ratio of 90% or more (almost completely withered))	5 (Herbicidal ratio of 90% or more (almost completely withered))	–	–	–	–	–	–	–	–	–	–	Herbicidal effect grade, M: Abutilon theophrasti [2, 12]: 0 (Herbicidal ratio of 5% or lower (almost no effect)); Herbicidal effect grade, I: Avena fatua [8, 12]: 0 (Herbicidal ratio of 5% or lower (almost no effect)); Herbicidal effect grade, O: Chenopodium album [9, 12]: 0 (Herbicidal ratio of 5% or lower (almost no effect))
CON=C(CC1CC(OC(=O)N2CCOCC2)=C(c2c(C)cc(C)cc2OC)C1=O)C1CC1 (mixture of isomers) [13-005]	0 (Herbicidal ratio of 5% or lower (almost no effect))	5 (Herbicidal ratio of 90% or more (almost completely withered))	3 (Herbicidal ratio of 40% or higher and lower than 70%)	2 (Herbicidal ratio of 20% or higher and lower than 40%)	5 (Herbicidal ratio of 90% or more (almost completely withered))	5 (Herbicidal ratio of 90% or more (almost completely withered))	4 (Herbicidal ratio of 70% or higher and lower than 90%)	–	–	–	–	–	–	–	–	–	–	M: Abutilon theophrasti, herbicidal effect grade [2, 12]: 0 (Herbicidal ratio of 5% or lower (almost no effect)); I: Avena fatua, herbicidal effect grade [8, 12]: 0 (Herbicidal ratio of 5% or lower (almost no effect)); O: Chenopodium album, herbicidal effect grade [9, 12]: 0 (Herbicidal ratio of 5% or lower (almost no effect))
CON=C(C)CC1CC(OC(=O)C#C[Si](C)(C)C)=C(c2c(C)cc(C)cc2C)C1=O (stereo not shown) [1-096]	–	–	–	–	–	–	–	3 (Herbicidal ratio of 40% or higher and lower than 70%)	4 (Herbicidal ratio of 70% or higher and lower than 90%)	5 (Herbicidal ratio of 90% or more (almost completely withered))	4 (Herbicidal ratio of 70% or higher and lower than 90%)	0 (Herbicidal ratio of 5% or lower (almost no effect))	5 (Herbicidal ratio of 90% or more (almost completely withered))	5 (Herbicidal ratio of 90% or more (almost completely withered))	3 (Herbicidal ratio of 40% or higher and lower than 70%)	0 (Herbicidal ratio of 5% or lower (almost no effect))	5 (Herbicidal ratio of 90% or more (almost completely withered))	–
COC(=O)c1ccc(CON=C(C)CC2CC(O)=C(c3c(C)cc(C)cc3C)C2=O)cc1 (stereo not shown) [1-118]	–	–	–	–	–	–	–	0 (Herbicidal ratio of 5% or lower (almost no effect))	0 (Herbicidal ratio of 5% or lower (almost no effect))	4 (Herbicidal ratio of 70% or higher and lower than 90%)	4 (Herbicidal ratio of 70% or higher and lower than 90%)	2 (Herbicidal ratio of 20% or higher and lower than 40%)	5 (Herbicidal ratio of 90% or more (almost completely withered))	0 (Herbicidal ratio of 5% or lower (almost no effect))	0 (Herbicidal ratio of 5% or lower (almost no effect))	0 (Herbicidal ratio of 5% or lower (almost no effect))	4 (Herbicidal ratio of 70% or higher and lower than 90%)	–
CC(CC1CC(O)=C(c2c(C)cc(C)cc2C)C1=O)=NOCc1ccccc1[N+](=O)[O-] (stereo not shown) [1-119]	–	–	–	–	–	–	–	0 (Herbicidal ratio of 5% or lower (almost no effect))	0 (Herbicidal ratio of 5% or lower (almost no effect))	5 (Herbicidal ratio of 90% or more (almost completely withered))	5 (Herbicidal ratio of 90% or more (almost completely withered))	0 (Herbicidal ratio of 5% or lower (almost no effect))	5 (Herbicidal ratio of 90% or more (almost completely withered))	4 (Herbicidal ratio of 70% or higher and lower than 90%)	1 (Herbicidal ratio of 5% or higher and lower than 20%)	0 (Herbicidal ratio of 5% or lower (almost no effect))	2 (Herbicidal ratio of 20% or higher and lower than 40%)	–
CON=C(C)CC1CC(OC(=O)N(C)CCCCCl)=C(c2c(C)cc(C)cc2C)C1=O (stereo not shown) [1-126]	–	–	–	–	–	–	–	0 (Herbicidal ratio of 5% or lower (almost no effect))	0 (Herbicidal ratio of 5% or lower (almost no effect))	3 (Herbicidal ratio of 40% or higher and lower than 70%)	4 (Herbicidal ratio of 70% or higher and lower than 90%)	0 (Herbicidal ratio of 5% or lower (almost no effect))	5 (Herbicidal ratio of 90% or more (almost completely withered))	5 (Herbicidal ratio of 90% or more (almost completely withered))	0 (Herbicidal ratio of 5% or lower (almost no effect))	0 (Herbicidal ratio of 5% or lower (almost no effect))	0 (Herbicidal ratio of 5% or lower (almost no effect))	–
COCCON=C(CC1CC(O)=C(c2c(C)cc(-n3cc(Cl)cn3)cc2C)C1=O)C1CC1 (stereo not shown) [9-020]	1 (Herbicidal ratio of 5% or higher and lower than 20%)	5 (Herbicidal ratio of 90% or more (almost completely withered))	4 (Herbicidal ratio of 70% or higher and lower than 90%)	1 (Herbicidal ratio of 5% or higher and lower than 20%)	5 (Herbicidal ratio of 90% or more (almost completely withered))	5 (Herbicidal ratio of 90% or more (almost completely withered))	5 (Herbicidal ratio of 90% or more (almost completely withered))	–	–	–	–	–	–	–	–	–	–	Herbicidal effect grade, M: Abutilon theophrasti [2, 12]: 3 (Herbicidal ratio of 40% or higher and lower than 70%); Herbicidal effect grade, I: Avena fatua [8, 12]: 0 (Herbicidal ratio of 5% or lower (almost no effect)); Herbicidal effect grade, C: Monochoria vaginalis [11]: 0 (Herbicidal ratio of 5% or lower (almost no effect))
